Measured values published in PubChem BioAssay AID2060627 (Molecular Pharmacology Branch, DTP, NCI, 2025).
Where “and” joins values, the source holds several entries; their conditions need not be identical. Identical values can stand only once.

System: 156681-154-R-J1-PDC complex spheroid viability
Assay: Anticancer human tumor 156681-154-R-J1-PDC patient-derived melanoma cell line growth inhibition [CLK]
Settings: for viability, T/C: stronger effect = lower value
Procedure, shortened: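 Patient-derived tumor cells grown as complex spheroids with HUVEC endothelial cells and mesenchymal stem cells, treated with drug combinations. Concentrations descend in half-log steps from near clinical Cmax, or from 10 microM if Cmax unknown.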

[1] = curve of first compound, second compound 0.0316 µM
[2] = curve of first compound, second compound 0.1 µM
[3] = curve of first compound, second compound 0.316 µM
[4] = curve of first compound, second compound 1 µM
[5] = curve of first compound, second compound 3.16 µM
[6] = curve of first compound, second compound 10 µM
[7] = second compound 0.0316 µM, first compound 0.0316 µM
[8] = second compound 0.0316 µM, first compound 0.1 µM
[9] = second compound 0.0316 µM, first compound 0.316 µM
[10] = second compound 0.0316 µM, first compound 1 µM
[11] = second compound 0.0316 µM, first compound 3.16 µM
[12] = second compound 0.0316 µM, first compound 10 µM
[13] = second compound 0.1 µM, first compound 0.0316 µM
[14] = second compound 0.1 µM, first compound 0.1 µM
[15] = second compound 0.1 µM, first compound 0.316 µM
[16] = second compound 0.1 µM, first compound 1 µM
[17] = second compound 0.1 µM, first compound 3.16 µM
[18] = second compound 0.1 µM, first compound 10 µM
[19] = second compound 0.316 µM, first compound 0.0316 µM
[20] = second compound 0.316 µM, first compound 0.1 µM
[21] = second compound 0.316 µM, first compound 0.316 µM
[22] = second compound 0.316 µM, first compound 1 µM
[23] = second compound 0.316 µM, first compound 3.16 µM
[24] = second compound 0.316 µM, first compound 10 µM
[25] = second compound 1 µM, first compound 0.0316 µM
[26] = second compound 1 µM, first compound 0.1 µM
[27] = second compound 1 µM, first compound 0.316 µM
[28] = second compound 1 µM, first compound 1 µM
[29] = second compound 1 µM, first compound 3.16 µM
[30] = second compound 1 µM, first compound 10 µM
[31] = second compound 3.16 µM, first compound 0.0316 µM
[32] = second compound 3.16 µM, first compound 0.1 µM
[33] = second compound 3.16 µM, first compound 0.316 µM
[34] = second compound 3.16 µM, first compound 1 µM
[35] = second compound 3.16 µM, first compound 3.16 µM
[36] = second compound 3.16 µM, first compound 10 µM
[37] = second compound 10 µM, first compound 0.0316 µM
[38] = second compound 10 µM, first compound 0.1 µM
[39] = second compound 10 µM, first compound 0.316 µM
[40] = second compound 10 µM, first compound 1 µM
[41] = second compound 10 µM, first compound 3.16 µM
[42] = second compound 10 µM, first compound 10 µM
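Also: spheroids exposed to the agents for seven days.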
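For viability, T/C in this document: 100% = DMSO vehicle control viability.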

## COC1C=CCC(C)C(C)S(=O)(=O)NC(=O)c2ccc3c(c2)N(CC2CCC21)CC1(CCCc2cc(Cl)ccc21)CO3 (stereo not given) + CNC(=O)c1ccc(Nc2nc(OC3CCCC3)c3c(-c4ccc5nc(C)oc5c4)c[nH]c3n2)c(OC)c1
[1]
  IC50: 1070 nM
[2]
  IC50: 327 nM
[3]
  IC50: 88.5 nM
[4]
  IC50: < 31.6 nM
[5]
  IC50: < 31.6 nM
[6]
  IC50: < 31.6 nM
[7]
  viability, T/C: 96.3%
[8]
  viability, T/C: 93.1%
[9]
  viability, T/C: 84.3%
[10]
  viability, T/C: 54%
[11]
  viability, T/C: 9.3%
[12]
  viability, T/C: 1.52%
[13]
  viability, T/C: 60.2%
[14]
  viability, T/C: 57%
[15]
  viability, T/C: 48.8%
[16]
  viability, T/C: 36.5%
[17]
  viability, T/C: 12.5%
[18]
  viability, T/C: 1.5%
[19]
  viability, T/C: 55.6%
[20]
  viability, T/C: 49.5%
[21]
  viability, T/C: 35.6%
[22]
  viability, T/C: 20.6%
[23]
  viability, T/C: 5.31%
[24]
  viability, T/C: 2.16%
[25]
  viability, T/C: 43.4%
[26]
  viability, T/C: 42.6%
[27]
  viability, T/C: 24.4%
[28]
  viability, T/C: 19.5%
[29]
  viability, T/C: 8.99%
[30]
  viability, T/C: 2.33%
[31]
  viability, T/C: 35.7%
[32]
  viability, T/C: 39%
[33]
  viability, T/C: 15.3%
[34]
  viability, T/C: 15.1%
[35]
  viability, T/C: 7.52%
[36]
  viability, T/C: 3.33%
[37]
  viability, T/C: 30.4%
[38]
  viability, T/C: 32.5%
[39]
  viability, T/C: 16.2%
[40]
  viability, T/C: 13.8%
[41]
  viability, T/C: 10.4%
[42]
  viability, T/C: 5.15%

## Nc1ccn(C2OC(CO)C(O)C2(F)F)c(=O)n1 (stereo not given) + CN1CCN(c2cc(C(=O)Nc3cc4cc(-c5cnn(C)c5)ccc4cn3)ccn2)CC1
[1]
  IC50: < 31.6 nM
[2]
  IC50: < 31.6 nM
[3]
  IC50: < 31.6 nM
[4]
  IC50: < 31.6 nM
[5]
  IC50: < 31.6 nM
[6]
  IC50: < 31.6 nM
[7]
  viability, T/C: 16.4%
[8]
  viability, T/C: 16.1%
[9]
  viability, T/C: 20.3%
[10]
  viability, T/C: 14.8%
[11]
  viability, T/C: 12%
[12]
  viability, T/C: 16.9%
[13]
  viability, T/C: 19%
[14]
  viability, T/C: 13.4%
[15]
  viability, T/C: 12.9%
[16]
  viability, T/C: 12.8%
[17]
  viability, T/C: 10.9%
[18]
  viability, T/C: 12.8%
[19]
  viability, T/C: 13.8%
[20]
  viability, T/C: 14%
[21]
  viability, T/C: 10.1%
[22]
  viability, T/C: 11.7%
[23]
  viability, T/C: 16.5%
[24]
  viability, T/C: 9.83%
[25]
  viability, T/C: 0.16%
[26]
  viability, T/C: 0.82%
[27]
  viability, T/C: 0.37%
[28]
  viability, T/C: 1.65%
[29]
  viability, T/C: 0.78%
[30]
  viability, T/C: 1.59%
[31]
  viability, T/C: 0.16%
[32]
  viability, T/C: 1.54%
[33]
  viability, T/C: 0.42%
[34]
  viability, T/C: 0.1%
[35]
  viability, T/C: 4.55%
[36]
  viability, T/C: 0.67%
[37]
  viability, T/C: 0.15%
[38]
  viability, T/C: 2.7%
[39]
  viability, T/C: 0.29%
[40]
  viability, T/C: 4.06%
[41]
  viability, T/C: 1.19%
[42]
  viability, T/C: 2.59%

## CCN1CCN(Cc2ccc(Nc3ncc(F)c(-c4cc(F)c5nc(C)n(C(C)C)c5c4)n3)nc2)CC1
Compound 0.00316 µM
  viability, T/C: 82.6% and 81.5%
Compound 0.01 µM
  viability, T/C: 82.6% and 92.4%
Compound 0.0316 µM
  viability, T/C: 83.9% and 84.2%
Compound 0.1 µM
  viability, T/C: 69.7% and 84.1%
Compound 0.316 µM
  viability, T/C: 66.8% and 75.8%
Compound 1 µM
  viability, T/C: 50.5% and 56.2%
Curve of compound
  IC50: > 1000 nM

## COc1cccc2c1C(=O)c1c(O)c3c(c(O)c1C2=O)CC(O)(C(=O)CO)CC3OC1CC(N)C(O)C(C)O1 (stereo not given)
Compound 0.0316 µM
  viability, T/C: 37% and 29.8%
Compound 0.1 µM
  viability, T/C: 25.2% and 19.9%
Compound 0.316 µM
  viability, T/C: 9.16% and 2.97%
Compound 1 µM
  viability, T/C: 0.48% and 0.17%
Compound 3.16 µM
  viability, T/C: 1.37% and 0.12%
Compound 10 µM
  viability, T/C: 2.47% and 0.67%
Curve of compound
  IC50: < 31.6 nM

## CC1COCCN1c1cc(C2(S(C)(=N)=O)CC2)nc(-c2ccnc3[nH]ccc23)n1 (stereo not given)
Compound 0.0316 µM
  viability, T/C: 78.6% and 84.9%
Compound 0.1 µM
  viability, T/C: 88.3% and 97.8%
Compound 0.316 µM
  viability, T/C: 85.9% and 86.3%
Compound 1 µM
  viability, T/C: 61.9% and 48%
Compound 3.16 µM
  viability, T/C: 24% and 20.1%
Compound 10 µM
  viability, T/C: 15.4% and 13.1%
Curve of compound
  IC50: 1440 nM and 956 nM
